Data: patent US11083725B2 (priority 2014, dated 2021)

Test system: NHBE cells
Assay: Biolog metabolic array: substrate use by NHBE cells with or without CA09 infection
Assay type: cell-based, human
Conditions: for Substrate use, 590 nm absorbance normalized to zero hour, 0 hr: Biolog PMM2, 0 hr; for Substrate use, 590 nm absorbance normalized to zero hour, 1 hr: Biolog PMM2, 1 hr; for Substrate use, 590 nm absorbance normalized to zero hour, 5 hr: Biolog PMM2, 5 hr; for Substrate use, 590 nm absorbance normalized to zero hour, 7 hr: Biolog PMM2, 7 hr
[1] = Control (uninfected) NHBE cells
[2] = Virus (CA09-infected NHBE cells, MOI 1)
[3] = Virus: CA09-infected NHBE cells, MOI 1, Biolog PMM2
[4] = Virus (CA09-infected, MOI 1) NHBE cells

Row | SMILES | 590 nm absorbance normalized to zero hour (substrate use), 1 hr [1] | 590 nm absorbance normalized to zero hour (substrate use), 2 hr [1] | 590 nm absorbance normalized to zero hour (substrate use), 3 hr [1] | 590 nm absorbance normalized to zero hour (substrate use), 4 hr [1] | 590 nm absorbance normalized to zero hour (substrate use), 6 hr [1] | 590 nm absorbance normalized to zero hour (substrate use), 8 hr [1] | 590 nm absorbance normalized to zero hour (substrate use), 9 hr [1] | 590 nm absorbance normalized to zero hour (substrate use), 10 hr [1] | 590 nm absorbance normalized to zero hour (substrate use), 11 hr [1] | Substrate use, 590 nm absorbance normalized to zero hour, 1 hr [1] | Substrate use, 590 nm absorbance normalized to zero hour, 5 hr [1] | Substrate use, 590 nm absorbance normalized to zero hour, 7 hr [1] | 590 nm absorbance normalized to zero hour (substrate use), 1 hr [3] | 590 nm absorbance normalized to zero hour (substrate use), 2 hr [3] | 590 nm absorbance normalized to zero hour (substrate use), 3 hr [3] | 590 nm absorbance normalized to zero hour (substrate use), 4 hr [3] | 590 nm absorbance normalized to zero hour (substrate use), 5 hr [3] | 590 nm absorbance normalized to zero hour (substrate use), 6 hr [3] | 590 nm absorbance normalized to zero hour (substrate use), 7 hr [3] | 590 nm absorbance normalized to zero hour (substrate use), 8 hr [3] | further results
1 | OC[C@H]1O[C@@H](O[C@H]2[C@H](O)[C@@H](O)[C@@H](O)O[C@@H]2CO)[C@H](O)[C@@H](O)[C@H]1O [a-D-Lactose] | 0.44 | 0.58 | 0.65 | 0.69 | 0.63 | 0.94 | 1.01 | 1.02 | 0.92 | 0.44 | 0.82 | 0.88 | 0.17 | 0.22 | 0.26 | 0.28 | 0.33 | 0.35 | 0.37 | 0.39 | 590 nm absorbance normalized to zero hour (substrate use), 0 hr [1]: 1.00; Substrate use, 590 nm absorbance normalized to zero hour, 0 hr [1]: 1.00; 590 nm absorbance normalized to zero hour (substrate use), 0 hr [2]: 1.00; 590 nm absorbance normalized to zero hour (substrate use), 1 hr [2]: 0.17; 590 nm absorbance normalized to zero hour (substrate use), 2 hr [2]: 0.22; 590 nm absorbance normalized to zero hour (substrate use), 3 hr [2]: 0.26; 590 nm absorbance normalized to zero hour (substrate use), 4 hr [2]: 0.28; 590 nm absorbance normalized to zero hour (substrate use), 5 hr [2]: 0.33; 590 nm absorbance normalized to zero hour (substrate use), 6 hr [2]: 0.35; 590 nm absorbance normalized to zero hour (substrate use), 7 hr [2]: 0.37; 590 nm absorbance normalized to zero hour (substrate use), 8 hr [2]: 0.39; 590 nm absorbance normalized to zero hour (substrate use), 9 hr [2]: 0.42; 590 nm absorbance normalized to zero hour (substrate use), 10 hr [2]: 0.41; 590 nm absorbance normalized to zero hour (substrate use), 11 hr [2]: 0.39; 590 nm absorbance normalized to zero hour (substrate use), 0 hr [3]: 1.00; 590 nm absorbance normalized to zero hour (substrate use), 9 hr [3]: 0.42; 590 nm absorbance normalized to zero hour (substrate use), 10 hr [3]: 0.41; 590 nm absorbance normalized to zero hour (substrate use), 11 hr [3]: 0.39
2 | OC[C@H]1O[C@H](OC[C@H]2O[C@H](O[C@]3(CO)O[C@H](CO)[C@@H](O)[C@@H]3O)[C@H](O)[C@@H](O)[C@@H]2O)[C@H](O)[C@@H](O)[C@H]1O [D-Raffinose] | 1.09 | 1.11 | 1.37 | 1.53 | 0.75 | 1.82 | 1.82 | 2.00 | 2.15 | 1.09 | 1.75 | 1.71 | 0.68 | 0.59 | 0.55 | 0.49 | 1.98 | 0.54 | 1.92 | 1.77 | 590 nm absorbance normalized to zero hour (substrate use), 0 hr [1]: 1.00; Substrate use, 590 nm absorbance normalized to zero hour, 0 hr [1]: 1.00; 590 nm absorbance normalized to zero hour (substrate use), 0 hr [4]: 1.00; 590 nm absorbance normalized to zero hour (substrate use), 1 hr [4]: 0.68; 590 nm absorbance normalized to zero hour (substrate use), 2 hr [4]: 0.59; 590 nm absorbance normalized to zero hour (substrate use), 3 hr [4]: 0.55; 590 nm absorbance normalized to zero hour (substrate use), 4 hr [4]: 0.49; 590 nm absorbance normalized to zero hour (substrate use), 5 hr [4]: 1.98; 590 nm absorbance normalized to zero hour (substrate use), 6 hr [4]: 0.54; 590 nm absorbance normalized to zero hour (substrate use), 7 hr [4]: 1.92; 590 nm absorbance normalized to zero hour (substrate use), 8 hr [4]: 1.77; 590 nm absorbance normalized to zero hour (substrate use), 9 hr [4]: 1.74; 590 nm absorbance normalized to zero hour (substrate use), 10 hr [4]: 1.15; 590 nm absorbance normalized to zero hour (substrate use), 11 hr [4]: 1.53; 590 nm absorbance normalized to zero hour (substrate use), 0 hr [3]: 1.00; 590 nm absorbance normalized to zero hour (substrate use), 9 hr [3]: 1.74; 590 nm absorbance normalized to zero hour (substrate use), 10 hr [3]: 1.15; 590 nm absorbance normalized to zero hour (substrate use), 11 hr [3]: 1.53
3 | O=C(CO)[C@@H](O)[C@@H](O)[C@H](O)CO [Tagatose] |  |  |  |  |  |  |  |  |  |  |  |  |  |  |  |  |  |  |  |  | 590 nm absorbance normalized to zero hour (substrate use), 11 hr [4]: 0.48
4 | CC(O)C(C)O (stereo not drawn) [2,3-Butanediol] | 1.23 | 1.54 | 1.61 | 1.58 | 0.83 | 1.93 | 2.09 | 2.19 | 2.33 | 1.23 | 1.83 | 1.84 | 1.66 | 1.65 | 0.31 | 0.33 | 0.38 | 0.40 | 0.42 | 0.43 | 590 nm absorbance normalized to zero hour (substrate use), 1 hr [2]: 1.66; 590 nm absorbance normalized to zero hour (substrate use), 2 hr [2]: 1.65; 590 nm absorbance normalized to zero hour (substrate use), 3 hr [2]: 0.31; 590 nm absorbance normalized to zero hour (substrate use), 4 hr [2]: 0.33; 590 nm absorbance normalized to zero hour (substrate use), 5 hr [2]: 0.38; 590 nm absorbance normalized to zero hour (substrate use), 6 hr [2]: 0.40; 590 nm absorbance normalized to zero hour (substrate use), 7 hr [2]: 0.42; 590 nm absorbance normalized to zero hour (substrate use), 8 hr [2]: 0.43; 590 nm absorbance normalized to zero hour (substrate use), 9 hr [2]: 0.45; 590 nm absorbance normalized to zero hour (substrate use), 10 hr [2]: 0.42; 590 nm absorbance normalized to zero hour (substrate use), 11 hr [2]: 0.39; 590 nm absorbance normalized to zero hour (substrate use), 9 hr [3]: 0.45; 590 nm absorbance normalized to zero hour (substrate use), 10 hr [3]: 0.42; 590 nm absorbance normalized to zero hour (substrate use), 11 hr [3]: 0.39
